Like-named read-outs stand apart in the source and are kept apart here.
Assays:
[1] = test system: A549 (human non-small cell lung cancer); assay: Antiproliferative activity (SRB assay); type: cell-based; settings: mean ± SD, three separated experiments, 72 h
Procedure: (§1) MCF-7, MGC-803, Hela and HepG-2 cell lines were cultured in a base medium (90% DMEM and 10% FBS), A549 and U937 were cultured in a base medium (90% PRMI-1640 and 10% FBS) at 37 °C, 5% CO2 and a saturated humidity atmosphere. All the mediums were supplemented with 10% FBS and 1% […]/streptomycin (all cells were purchased from Shanghai Institutes for Biological Sciences, Chinese Academy of Sciences, Shanghai, China).
(§2) A549, MGC-803, MCF-7, HepG2 and Hela cells were seeded at the appropriate cell line density (3 × 10^3 to 4 × 10^3 cells/well). The cells were then incubated at 37 °C for 24 h in a humidified 5%CO2 in 96-well plates prior to experiments. After a further 72 h of incubation, cell proliferation was quantified with SRB ([…]) to determine the number of surviving cells. The absorbance at 560 nm was measured by microplate. The experiment was repeated three times, and the data were listed in the form of mean and standard deviation.

[2] = test system: Hela (human cervical cancer cells); assay: Antiproliferative activity (SRB assay); type: cell-based; settings: mean ± SD, three separated experiments, 72 h
Procedure: as §1, §2

[3] = test system: HepG2 (human liver cancer cells); assay: Antiproliferative activity (SRB assay); type: cell-based; settings: mean ± SD, three separated experiments, 72 h
Procedure: as §1, §2

[4] = test system: MCF-7 (human breast cancer cells); assay: Antiproliferative activity (SRB assay); type: cell-based; settings: MCF7, mean ± SD, three separated experiments, 72 h
Procedure: as §1, §2

[5] = test system: U937 (human leukaemia cells); assay: Antiproliferative activity (CCK-8 assay); type: cell-based; settings: U-937, mean ± SD, three separated experiments, 72 h
Procedure: as §1
(§3) MGC-803 cells were collected and seeded into 96 well plates at a density of 8000/well. The mediums containing drugs and cell suspension were added into the well. The cells were incubated in 5% CO2 incubator at 37 °C for 72 h. Each well was added 10 µL CCK8 solution, and the incubation time was 3–4 h. The absorbance value at 450 nm was measured by microplate reader. Data are calculated with GraphPad Prism5 software.

[6] = test system: six human cancer cell lines (MCF-7, MGC-803, HepG2, Hela, A549, U937); assay: Antiproliferative activity, summary over the tested cancer cell lines; type: cell-based; settings: read-out: IC50
Procedure: as §2, §3

[7] = test system: MMP of MGC-803 cells; assay: Mitochondrial membrane potential (JC-1, flow cytometry); type: cell-based, human; settings: 72 nM, 48 h
Procedure: There is a close relationship between mitochondria and apoptosis, and a decrease in mitochondrial membrane potential is one of the irreversible events that occur early in apoptosis cells. Therefore, effect of compound 4c on MMP of MGC-803 cells was examined by cationic JC-1 staining method and flow cytometry.
The cultured cells were spread in 6-well plates with about 1.5 × 10^5 cells per well and incubated overnight at 37 °C. Different concentrations of the 4c were added to the wells, and the incubation was continued for 48 h. The wells were washed twice with JC-1 staining buffer (1×) after resuspension with an appropriate amount of JC-1 staining buffer (1×), flow cytometry assays were performed according to standard procedures

[8] = test system: ROS in MGC-803 cells; assay: Intracellular ROS generation (DCFH-DA, flow cytometry); type: cell-based, human; settings: 72 nM, 48 h, control 0.17%
Procedure: It is now generally accepted that mitochondrial dysfunction is the main source of elevated ROS levels, accompanied by changes in mitochondrial membrane potential and activation of downstream Caspases. To further evaluate the alterations of intracellular ROS levels after cells exposed to 4c, flow cytometry was analysed with 2′,7′-Dichlorodihydrofluorescein diacetate (DCFH-DA) as fluorescent probe. As shown in Figure 7(B), 4c induced intracellular ROS generation in a dose-dependent manner. […] According to above-mentioned results, we can deduce that 4c induced cell apoptosis through a variety of ways including the disruption of the mitochondrial membrane potential, accumulation of intracellular ROS level and regulation of apoptosis-related proteins expression in cancer cells.
Load the probe and dilute DCFH-DA with serum-free culture medium at 1:1000 to a final concentration of […]. Spread the cultured cells in a 6-well plate with about 1.5 × 10^5 cells per well and incubate overnight at 37 °C. After 48 h of incubation with 4c (18, 36, 72nΜ) the cell culture medium was removed and diluted DCFH-DA was added and incubated for 20 min at 37 °C in an incubator, and the mixture was inverted every 3–5 min. […] Add 200 μL of PBS for resuspension, place on ice, and subsequently assay by flow cytometry using standard procedures.

[9] = test system: MGC-803 cells; assay: Transwell cell invasion assay; type: cell-based, human; settings: compared with control group
Procedure: Metastasis is one of the leading causes of morbidity and mortality of cancer patients. Microtubules-targeting inhibitors have also been reported to interfere with cell migration and invasion. Accordingly, the in vitro would healing assay and Transwell assays were performed to investigate the inhibitory effect of compound 4c on the migration and invasion of MGC-803 cells. As shown Figure 8(A,C), the scratches healing rate in the control group was approximately 64%. By contrast, the cells treated with 4c have much smaller scratched areas recovery at all concentrations. […] Cell invasion is an important malignant behaviour during cancer metastasis. In Tanswell assay, MGC-803 cells were seeded into upper chambers with pre-coated Matrigel stimulating base membrane in order to assess the cellular invasion.
Matrix gel was thawed overnight at 4 °C. […] Transwell was placed into a 24-well plate, 35% acetic acid (300 μL) was added to the upper chamber of the chamber, and after acetic acid completely entered the lower chamber, 100 μL of acetic acid from the lower chamber was aspirated into a 96-well plate, and three replicate wells of each concentration were shaken for 10 min, and the absorbance was measured at 560 nm with an enzyme marker.

[10] = test system: HUVECs; assay: Tube formation assay on Matrigel; type: cell-based, human; settings: 2.5 µM
Procedure: The formation of HUVEC tube represents the key steps in angiogenesis. Thus, we further tested the anti-vascular activity of 4c by performing a tube formation assay. As shown in Figure 10 HUVECs in the control group formed integrated tubules with multicentric junctions on the Matrigel matrix, while the tubes were fragmentary after exposure to 4c.
The matrix gel was thawed overnight at 4 °C and then added to 96 well plates. After incubated at 37 °C for 45 min, the matrix gel was solidified. Different concentrations of 4c were added to each well at the density of HUVECs was 1 × 10^5/well. After incubated at 37 °C for 6–8 h, the formation of tubules was observed under microscope

- IC50 [1]: 202 ± 12 nM
- IC50 [2]: 25 ± 1 nM
- IC50 [3]: > 5000 nM
- IC50 [4]: 254 ± 37 nM
- IC50 [5]: 25 ± 1 nM
- IC50 ([6]; against five of the tested cell lines, range): 25 to 202 nM
- IC50 ([6]; against six cell lines, range as worded in text): 25 to 254 nM
SMILES: COc1cc(C(=O)/C(F)=C/c2c[nH]c3cc(Br)ccc23)cc(OC)c1OC [4c, (Z)-3–(6-bromo-1H-indol-3-yl)-2-fluoro-1–(3,4,5-trimethoxyphenyl)prop-2-en-1-one]
- JC-1 green fluorescence intensity (lower gate) ([7]; control 7.13): 55.6%
- JC-1 red fluorescence intensity (upper gate) ([7]; control 92.4): 41.3%
- FITC-A+ (ratio of DCF positive cells) [8]: 93.6%
- invasion ability (Transwell, Matrigel) [9]: significant reduced invasion ability
- HUVEC cord formation, tube area and length [10]: dramatically suppressed

— publication PMC8741257, “Identification of novel non-toxic and anti-angiogenic α-fluorinated chalcones as potent colchicine binding site inhibitors” (Journal of Enzyme Inhibition and Medicinal Chemistry, 2022)
